US20180172712A1, “METHODS AND MATERIALS FOR ASSESSING HYDROGEN PEROXIDE ACCUMULATION IN CELLS” (Mayo Foundation for Medical Education and Research, priority 2015, published 2018)
Read-outs that look alike come from different tables or passages of the source.

Assays:
IgL-λ dimers [1] = test: IgL dimerization immunoblot under nonreducing conditions in MM.1S cells; format: cell-based, human; settings: 3 hours, lenalidomide 10 μM or H2O2 25 μM
From the text: (§1) Proteins were transferred to polyvinylidene fluoride membranes (Bio-Rad).

MM.1S cells [2] = test: MTT assay in MM.1S cells; format: cell-based, human; settings: 3 days
From the text: (§2) The data were normalized to the DMSO-treated group.

IgL-λ = IgL-λ secretion and intracellular level (immunoblot, ELISA) in OPM2-NT and OPM2-shCRBN cells; format: cell-based, human
From the text: as §1

MM.1S cells [3] = test: Intracellular ROS by DCFDA flow cytometry; format: cell-based, human; settings: MM.1S cells pretreated with DCFDA 30 minutes; lenalidomide 10 μM vs vehicle
Experimental: Post-treatment reactive oxygen species (ROS) levels were determined using the cell-permeable fluorogenic probe DCFDA (Invitrogen Biosciences). Briefly, million cells per 2 mL (2 million cells in 4 mL medium) were cultured overnight. DCFDA (50 μM) was added to suspended cells and incubated for 30 minutes in the dark. Cells were collected and washed once with phosphate-buffered saline (PBS) and split into 2 FACS tubes. […] Cells were analyzed using a FACSCalibur system (Becton and Dickinson), with excitation and emission spectra set at 488 and 530 nm, respectively. CellQuest software was used to calculate H2O2 production by measuring the increase in mean fluorescence.

JJN3 cells = test: MTT assay in JJN3 cells; format: cell-based, human; settings: JJN3, 3 days
From the text: as §2

IgL-λ dimers [4] = test: IgL dimerization immunoblot in MM.1S and MM.1Sres cells; format: cell-based, human; settings: MM.1S and MM.1Sres treated for 3 days
From the text: as §1

XBP-1 mRNA = XBP-1 mRNA splicing by PCR; format: cell-based, human; settings: lenalidomide 10 μM, 3 days
Experimental: (§3) Total RNA from HMCLs treated with lenalidomide was isolated using the Qiagen RNeasy mini kit. RNA (1 μg) was used for cDNA synthesis using iScript Reverse Transcription Supermix (Bio-Rad). Real-time polymerase chain reaction (PCR) was performed using the SYBR green method. The following primers were used for amplification: […]
(§4) The fold change of the mRNA expression was calculated from the difference between treated and untreated cells, after normalizing to an endogenous control (β-actin). Primers encompassing the spliced sequences in XBP1 mRNA were used for PCR amplification, and products were separated by electrophoresis through a 2.5% agarose gel and visualized by ethidium bromide staining. All reactions were conducted in triplicate.

IgL-λ mRNA = test: Real-time PCR for IgL-λ mRNA; format: cell-based, human; settings: FIG. 8B; 10, 30, or 50 μM, 72 hours
Experimental: as §3, §4

[5] = test system: intracellular peroxidases in HMCLs; test: Intra-cellular peroxidase activity by Amplex Red in HMCLs; format: cell-based, human; settings: different myeloma cell lines; thalidomide 20 μM, lenalidomide 20 μM, pomalidomide 10 μM; 40 to 60 minutes
Experimental: (§5) After 30 minutes, plates were read for fluorescence at 530 nm excitation and 590 nm emission with plate reader (Biotek Cytation3). For determining intra-cellular peroxidase activity by Amplex Red, cells were washed and mixed with Amplex Red reagent (50 μM) in HBSS buffer and plated 100,000 cells per well into 96 well plate, four wells for each condition. […] The DMSO control included H2O2 (100 μM). […] After specific time periods, the plates were read for fluorescence intensity using plate reader.

RPMI-8226 cells = test: MTT assay in RPMI-8226 cells; format: cell-based, human; settings: RPMI-8226, 3 days
From the text: as §2

Bip = Bip immunoblot in other isogenic HMCLs (MM.1S/MM.1Sres, KMS18-NT/KMS18-shCRBN); format: cell-based, human; settings: CRBN-positive vs CRBN-negative cells, 3 days
From the text: as §1

KMS11 cells = test: MTT assay in KMS11 cells; format: cell-based, human; settings: KMS11, 3 days
From the text: as §2

[6] = test system: OPM2-NT and OPM2-shCRBN cells; test: MTT assay in OPM2-NT and OPM2-shCRBN cells; format: cell-based, human; settings: OPM2-NT vs OPM2-shCRBN, increasing concentrations, 3 days
From the text: as §2

Horseradish peroxidase = target: T1, Horseradish peroxidase (Armoracia rusticana, UniProt P00433); test: HRP/Amplex Red in-vitro assay; format: biochemical; settings: 10 μM drug, 5 μM H2O2, 30 minutes
T1 sequence (P00433 31-338 limits assumed): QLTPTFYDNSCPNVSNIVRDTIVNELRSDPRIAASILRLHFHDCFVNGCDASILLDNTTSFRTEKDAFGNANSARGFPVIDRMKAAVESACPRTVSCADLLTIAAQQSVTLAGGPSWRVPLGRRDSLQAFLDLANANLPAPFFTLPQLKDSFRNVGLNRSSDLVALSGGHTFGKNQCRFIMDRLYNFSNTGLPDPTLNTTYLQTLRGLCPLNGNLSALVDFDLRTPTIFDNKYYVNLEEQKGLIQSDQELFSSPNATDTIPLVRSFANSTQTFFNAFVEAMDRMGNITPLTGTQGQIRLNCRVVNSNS
Experimental: as §5

[7] = test system: ER stress markers in OPM2-NT and OPM2-shCRBN cells; test: ER stress immunoblot in OPM2-NT and OPM2-shCRBN cells; format: cell-based, human
From the text: as §1

MM.1Sres cells = test: MTT assay in MM.1Sres cells; format: cell-based, human
From the text: as §2

IKZF1 and IKZF3 [8] = test: Western blot of IKZF1 and IKZF3 in OCIMY-5 cells overexpressing CRBN; format: cell-based, human; settings: lenalidomide 10 μM or H2O2 25 or 50 μM, within 3 hours
Experimental: as §1
Human CRBN cDNA was obtained from Thermo Scientific and subcloned into a lentiviral expression vector, pCDH-CMV-MCS-EF1-copGFP (System Bioscience). Lentivirus harboring control vector and CRBN cDNA constructs were prepared and used to infect the multiple myeloma (MM) cell line OCIMY5. Infection efficiency was measured by FACScan analysis of GFP expression 3 days after infection. The cells were sorted for GFP expression 14 days after infection.

IKZF1 and IKZF3 [9] = test: Western blot of IKZF1 and IKZF3 in MM.1S cells; format: cell-based, human
From the text: as §1

IKZF1 and IKZF3 [10] = settings: OPM2-NT vs OPM2-shCRBN; H2O2 25 or 50 μM, 3 hours
From the text: as §1

Nc1cccc2c1CN(C1CCC(=O)NC1=O)C2=O (stereo not drawn) [lenalidomide]
formation of IgL-λ dimers (IgL-λ dimers [1]): increased formation of IgL-λ dimers
sensitivity of cell line (MTT) (MM.1S cells [2]): hypersensitive
total intracellular IgL protein (IgL-λ; FIG. 8C, 72 hours): increased total intracellular IgL protein
secretion of IgG-λ / IgL-λ (IgL-λ; FIG. 8D-E): decreased secretion
intracellular H2O2 (DCF fluorescence by FACS) (MM.1S cells [3]): increasing intracellular H2O2
sensitivity of cell line (MTT) (JJN3 cells): resistant
IgL-λ dimers (IgL-λ dimers [4]): IgL-λ dimers were observed only in MM.1S
mRNA splicing of XBP-1 (XBP-1 mRNA): more evident in OPM2-NT cells than CRBN-knockdown cells
IgL-λ mRNA expression (IgL-λ mRNA): unchanged
intracellular H2O2 decomposition mediated by peroxidases [5]: inhibit intracellular H2O2 decomposition
sensitivity of cell line (MTT) (RPMI-8226 cells): resistant
Bip protein (Bip): accumulation of Bip protein in CRBN-positive cells, but not in CRBN-negative cells
sensitivity of cell line (MTT) (KMS11 cells): sensitive
CRBN dependence of cytotoxicity (MTT) [6]: CRBN dependent
decomposition of H2O2 by horseradish peroxidase (Amplex Red to resorufin) (Horseradish peroxidase): inhibited
ER stress response ([7]; 3 days, increasing concentrations (10, 30, or 50 μM)): an ER stress response occurred in OPM2-NT cells, but not in CRBN-knockdown cells
GRP78/BiP protein ([7]; CRBN-positive cells, 3 days): accumulated
IRE1α protein level ([7]; CRBN-positive cells, 3 days): markedly decreased
p53 protein levels ([7]; CRBN-positive cells, 3 days): decreased
p53 and PARP levels ([7]; CRBN-positive lenalidomide-sensitive cells, 6 days): complete degradation of p53 and PARP proteins
sensitivity of cell line (MTT) (MM.1Sres cells): resistant

OO [H2O2, hydrogen peroxide]
formation of IgL-λ dimers (IgL-λ dimers [1]): increased formation of IgL-λ dimers
sensitivity of cell line (MTT) (MM.1S cells [2]): hypersensitive
IKZF1 and IKZF3 degradation (IKZF1 and IKZF3 [8]): enhanced IKZF1 and IKZF3 degradation
IKZF1 and IKZF3 degradation (IKZF1 and IKZF3 [9]; MM.1S cells, 3 hours (lenalidomide 10 μM, H2O2 100 μM, PX12 20 μM)): degraded IKZF1 and IKZF3 most effectively
IKZF1 degradation (IKZF1 and IKZF3 [9]; MM.1S, 3 hours of treatment): prominent
time of peak IKZF1 dimerization after treatment (IKZF1 and IKZF3 [9]; MM.1S, exogenous H2O2 50 μM): 60 min
IKZF1 dimerization (IKZF1 and IKZF3 [9]; MM.1S, nonreducing conditions, lenalidomide 10 μM or exogenous H2O2 50 μM): induced IKZF1 dimerization
sensitivity of cell line (MTT) (RPMI-8226 cells): resistant
IKZF1 and IKZF3 degradation (IKZF1 and IKZF3 [10]): in a CRBN-dependent fashion
